# Test results as given in patent US20240101546A1, “HETEROARYL-ACETYLENES, PHARMACEUTICAL COMPOSITIONS THEREOF, AND THEIR THERAPEUTIC APPLICATIONS” (Eubulus Biotherapeutics Inc., priority 2020, published 2024).
# Test system: lung cancer cell line NCI-H82
# Experiment: Cell proliferation assay, NCI-H82 (CELL-TITER GLO)
# Assay type: cell-based
# Conditions: Homo sapiens, NCI-H82, 72 h, NCI-H82 cells, 72 h incubation, cell viability by CELL-TITER GLO, top concentration 1 μM; read-out: EC50, Inhibition of NCl-H82 Cell Proliferation
# Protocol: The activity of a compound was determined in a cell proliferation assay using the lung cancer cell line NCI-H82. Cells (1,000 cells per well) were cultured with RPMI1640 in a 384-well tissue culture plate. After incubated overnight, the compound was added at predetermined concentrations, starting with 1 μM and followed by a 3-fold serial dilution. After the cells were incubated for 72 h, cell viability was determined using a CELL-TITER GLO assay. The CELL-TITER GLO reagent (25 μL) was added to each well and the luminescence was measured by a multimode microplate reader after a brief period of shaking. EC50 values were determined for the compound. The results are summarized in Table 1, wherein A represents a value no greater than 200 nM, B represents a value greater than 200 nM but no greater than 1 μM, C represents a value greater than 1 μM but no greater than […], and D represents a value greater than 5 μM.
row,Structure (SMILES),EC50 [µM]
1,"C#Cc1nc(NC(=O)N[C@@H](CO)c2ccc(-c3cc(F)cnc3C3(C#N)CC3)cc2)cs1 [Compound A64, (R)-1-(1-(4-(2-(1-Cyanocyclopropyl)-5-fluoropyridin-3-yl)phenyl)-2-hydroxy-ethyl)-3-(2-ethynylthiazol-4-yl)urea]",≤ 0.2
2,"C#Cc1nc(NC(=O)N[C@@H](CO)c2ccc(-c3cccnc3C3(C#N)CC3)c(Cl)c2)cs1 [Compound A65, (R)-1-(1-(3-Chloro-4-(2-(1-cyanocyclopropyl)pyridin-3-yl)phenyl)-2-hydroxy-ethyl)-3-(2-ethynylthiazol-4-yl)urea]",≤ 0.2
3,"C#Cc1nc(NC(=O)N[C@H](CO)c2ccc(-c3cccnc3C3(C#N)CC3)c(Cl)c2)cs1 [Compound A66, (S)-1-(1-(3-Chloro-4-(2-(1-cyanocyclopropyl)pyridin-3-yl)phenyl)-2-hydroxy-ethyl)-3-(2-ethynylthiazol-4-yl)urea]",≤ 0.2
4,"C#Cc1nc(NC(=O)N(C)[C@@H](CO)c2ccc(-c3cccnc3C3(C#N)CC3)c(Cl)c2)cs1 [Compound A67, (R)-1-(1-(3-Chloro-4-(2-(1-cyanocyclopropyl)pyridin-3-yl)phenyl)-2-hydroxy-ethyl)-3-(2-ethynylthiazol-4-yl)-1-methylurea]",≤ 0.2
5,"C#Cc1nc(NC(=O)N[C@@H](CO)c2ccc(-c3cccnc3C3(C#N)CC3)c(F)c2)cs1 [Compound A68, (R)-1-(1-(4-(2-(1-Cyanocyclopropyl)pyridin-3-yl)-3-fluorophenyl)-2-hydroxy-ethyl)-3-(2-ethynylthiazol-4-yl)urea]",≤ 0.2
6,"C#Cc1nc(NC(=O)N[C@@H](COC(N)=O)c2ccc(-c3cccnc3C3(C#N)CC3)c(Cl)c2)cs1 [Compound A69, (R)-2-(3-Chloro-4-(2-(1-cyanocyclopropyl)pyridin-3-yl)phenyl)-2-(3-(2-ethynyl-thiazol-4-yl)ureido)ethyl carbamate]",≤ 0.2
7,"C#Cc1nc(NC(=O)N(C)[C@@H](COC(N)=O)c2ccc(-c3cccnc3C3(C#N)CC3)c(Cl)c2)cs1 [Compound A70, (R)-2-(3-Chloro-4-(2-(1-cyanocyclopropyl)pyridin-3-yl)phenyl)-2-(3-(2-ethynyl-thiazol-4-yl)-1-methylureido)ethyl carbamate]",≤ 0.2
8,"C#Cc1nnc(NC(=O)N[C@@H](CO)c2ccc(-c3cccnc3C3(C#N)CC3)c(Cl)c2)s1 [Compound A71, (R)-1-(1-(3-Chloro-4-(2-(1-cyanocyclopropyl)pyridin-3-yl)phenyl)-2-hydroxy-ethyl)-3-(5-ethynyl-1,3,4-thiadiazol-2-yl)urea]",≤ 0.2
9,"C#Cc1nc(NC(=O)N[C@@H](CS(C)(=O)=O)c2ccc(-c3cccnc3C3(C#N)CC3)c(Cl)c2)cs1 [Compound A72, (R)-1-(1-(3-Chloro-4-(2-(1-cyanocyclopropyl)pyridin-3-yl)phenyl)-2-(methyl-sulfonyl)ethyl)-3-(2-ethynylthiazol-4-yl)urea]",≤ 0.2
10,"C#Cc1nc(NC(=O)N[C@@H](CS(N)(=O)=O)c2ccc(-c3cccnc3C3(C#N)CC3)c(Cl)c2)cs1 [Compound A73, (R)-2-(3-Chloro-4-(2-(1-cyanocyclopropyl)pyridin-3-yl)phenyl)-2-(3-(2-ethynyl-thiazol-4-yl)ureido)ethanesulfonamide]",≤ 0.2
11,"C#Cc1nc(NC(=O)N[C@@H](C(=O)NC)c2ccc(-c3cccnc3C3(C#N)CC3)c(Cl)c2)cs1 [Compound A74, (R)-2-(3-Chloro-4-(2-(1-cyanocyclopropyl)pyridin-3-yl)phenyl)-2-(3-(2-ethynyl-thiazol-4-yl)ureido)-N-methylacetamide]",≤ 0.2
12,"C#Cc1nc(NC(=O)N[C@@H](CO)c2ccc(-c3ccc(F)cc3C3(C#N)CC3)cn2)cs1 [Compound A75, (R)-1-(1-(5-(2-(1-Cyanocyclopropyl)-4-fluorophenyl)pyridin-2-yl)-2-hydroxy-ethyl)-3-(2-ethynylthiazol-4-yl)urea]",≤ 0.2
13,"C#Cc1nc(NC(=O)N[C@@H](COC(N)=O)c2ccc(-c3ccc(F)cc3C3(C#N)CC3)cn2)cs1 [Compound A76, (R)-2-(5-(2-(1-Cyanocyclopropyl)-4-fluorophenyl)pyridin-2-yl)-2-(3-(2-ethynyl-thiazol-4-yl)ureido)ethyl carbamate]",≤ 0.2
14,"C#Cc1nc(NC(=O)N[C@@H](CO)c2ccc(-c3cc(F)ccc3C3(C#N)CC3)cn2)cs1 [Compound A77, (R)-1-(1-(5-(2-(1-Cyanocyclopropyl)-5-fluorophenyl)pyridin-2-yl)-2-hydroxyethyl)-3-(2-ethynylthiazol-4-yl)urea]",≤ 0.2
15,"C#Cc1nc(NC(=O)N[C@@H](CO)c2ccc(-c3c(F)cccc3C3(C#N)CC3)cn2)cs1 [Compound A78, (R)-1-(1-(5-(2-(1-Cyanocyclopropyl)-6-fluorophenyl)pyridin-2-yl)-2-hydroxy-ethyl)-3-(2-ethynylthiazol-4-yl)urea]",≤ 0.2
16,"C#Cc1nc(NC(=O)N[C@@H](CO)c2ccc(-c3c(F)cc(F)cc3C3(C#N)CC3)cn2)cs1 [Compound A79, (R)-1-(1-(5-(2-(1-Cyanocyclopropyl)-4,6-difluorophenyl)pyridin-2-yl)-2-hydroxyethyl)-3-(2-ethynylthiazol-4-yl)urea]",≤ 0.2
17,"C#Cc1nc(NC(=O)N[C@@H](CO)c2ccc(-c3ccccc3C3CC3(F)F)cn2)cs1 (stereo partly drawn) [Compound A80, 1-((1R)-1-(5-(2-(2,2-Difluorocyclopropyl)phenyl)pyridin-2-yl)-2-hydroxyethyl)-3-(2-ethynylthiazol-4-yl)urea]",≤ 0.2
18,"C#Cc1nc(NC(=O)N[C@@H](CO)c2ccc(-c3ccc(F)cc3C3CC3(F)F)cn2)cs1 (stereo partly drawn) [Compound A81, 1-((1R)-1-(5-(2-(2,2-Difluorocyclopropyl)-4-fluorophenyl)pyridin-2-yl)-2-hydroxyethyl)-3-(2-ethynylthiazol-4-yl)urea]",≤ 0.2
19,"C#Cc1nc(NC(=O)N(C)[C@@H](CO)c2ccc(-c3ccc(F)cc3C3CC3(F)F)cn2)cs1 (stereo partly drawn) [Compound A82, 1-((1R)-1-(5-(2-(2,2-Difluorocyclopropyl)-4-fluorophenyl)pyridin-2-yl)-2-hydroxyethyl)-3-(2-ethynylthiazol-4-yl)-1-methylurea]",≤ 0.2
20,"C#Cc1nc(NC(=O)N[C@@H](COC(N)=O)c2ccc(-c3ccc(F)cc3C3CC3(F)F)cn2)cs1 (stereo partly drawn) [Compound A83, (2R)-2-(5-(2-(2,2-Difluorocyclopropyl)-4-fluorophenyl)pyridin-2-yl)-2-(3-(2-ethynylthiazol-4-yl)ureido)ethyl carbamate]",≤ 0.2
21,"C#Cc1nc(NC(=O)N(C)[C@@H](COC(N)=O)c2ccc(-c3ccc(F)cc3C3CC3(F)F)cn2)cs1 (stereo partly drawn) [Compound A84, (2R)-2-(5-(2-(2,2-Difluorocyclopropyl)-4-fluorophenyl)pyridin-2-yl)-2-(3-(2-ethynylthiazol-4-yl)-1-methylureido)ethyl carbamate]",≤ 0.2
22,"C#Cc1nnc(NC(=O)N[C@@H](CO)c2ccc(-c3ccc(F)cc3C3CC3(F)F)cn2)s1 (stereo partly drawn) [Compound A85, 1-((1R)-1-(5-(2-(2,2-Difluorocyclopropyl)-4-fluorophenyl)pyridin-2-yl)-2-hydroxyethyl)-3-(5-ethynyl-1,3,4-thiadiazol-2-yl)urea]",≤ 0.2
23,"C#Cc1nnc(NC(=O)N(C)[C@@H](CO)c2ccc(-c3ccc(F)cc3C3CC3(F)F)cn2)s1 (stereo partly drawn) [Compound A86, 1-((1R)-1-(5-(2-(2,2-Difluorocyclopropyl)-4-fluorophenyl)pyridin-2-yl)-2-hydroxyethyl)-3-(5-ethynyl-1,3,4-thiadiazol-2-yl)-1-methylurea]",≤ 0.2
